Measured values from ChEMBL document CHEMBL1201862, “PubChem BioAssay data set” (2004).
The source made the active and inactive calls.

Legend:
[1] = target: T1, Dual specificity protein phosphatase 3 (Homo sapiens, UniProt P51452); test: VHR1 phosphatase inhibitors, primary screen, biochemical, absorbance, uHTS (AID 1654)
[2] = target: Guanyl-specific ribonuclease T1 (Aspergillus oryzae (strain ATCC 42149 / RIB 40), UniProt P00651); test: RNase T1 inhibitors, dose response, counter-screen for TPT1 inhibitor project, biochemical, fluorescence polarization, 1536-well (AID 2167)
[3] = target: T2, SUMO-activating enzyme (Homo sapiens, UniProt Q9UBT2); test: SUMOylation inhibitor hit validation, confirmation, SUMOylation inhibitor project, biochemical, AlphaScreen (AID 2018); assay type: functional
[4] = target: T3, Voltage-gated N-type calcium channel alpha-1B subunit/Amyloid beta A4 precursor protein-binding family A member 1 (Homo sapiens, UniProt Q00975+Q02410); assay type: protein assay
[5] = target: T2, SUMO-activating enzyme; test: inhibitors of in vitro SUMOylation cascade, primary screen, biochemical, HTRF, uHTS (AID 2006); assay type: protein-complex assay
[6] = target: Likely tRNA 2'-phosphotransferase (Candida albicans (strain SC5314 / ATCC MYA-2876) (Yeast), UniProt Q5A7N4); test: TPT1 tRNA phosphotransferase inhibitors, dose response, biochemical, fluorescence polarization (AID 2160)
[7] = target: T3, Voltage-gated N-type calcium channel alpha-1B subunit/Amyloid beta A4 precursor protein-binding family A member 1; assay type: protein assay; remark: listed apart in the source
[8] = target: T1, Dual specificity protein phosphatase 3; test: VHR1 phosphatase inhibitors, biochemical (AID 1878)
[9] = target: T4, Dual specificity protein phosphatase 6 (Rattus norvegicus, UniProt Q64346); test: MKP-3 phosphatase inhibitors, primary screen, biochemical, rat enzyme, in vitro (AID 425)
T4 sequence (Q64346 whole entry): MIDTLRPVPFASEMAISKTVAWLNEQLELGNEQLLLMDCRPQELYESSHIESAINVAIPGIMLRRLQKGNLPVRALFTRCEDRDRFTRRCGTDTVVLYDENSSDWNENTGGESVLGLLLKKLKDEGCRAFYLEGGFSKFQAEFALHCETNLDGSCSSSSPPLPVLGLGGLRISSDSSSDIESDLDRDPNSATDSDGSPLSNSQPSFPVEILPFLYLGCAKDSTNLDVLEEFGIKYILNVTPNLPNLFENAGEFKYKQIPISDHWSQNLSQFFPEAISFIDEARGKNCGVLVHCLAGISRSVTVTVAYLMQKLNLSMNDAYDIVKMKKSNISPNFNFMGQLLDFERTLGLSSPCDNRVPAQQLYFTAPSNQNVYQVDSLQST

[10] = target: T5, Small ubiquitin-related modifier 1 (Homo sapiens, UniProt P63165); test: inhibitors of SUMO1 peptide binding, dose response, biochemical, fluorescence polarization, uHTS hits (AID 624382); assay type: functional; conditions: read-out: IC50_Mean
[11] = target: T5, Small ubiquitin-related modifier 1; test: inhibitors of SUMO1 partner interactions, dose response, biochemical, FRET (AID 624383); assay type: functional; conditions: read-out: IC50_Mean
[12] = target: Nuclear receptor ROR-gamma (Homo sapiens, UniProt P51449); test: ROR modulator nuclear receptor reporter panel, late-stage follow-up, ROR modulator project, cell-based, luciferase reporter, panel member RORG (AID 2117)
[13] = target: Nuclear receptor ROR-alpha (Homo sapiens, UniProt P35398); test: ROR modulator nuclear receptor reporter panel, late-stage follow-up, ROR modulator project, cell-based, luciferase reporter, panel member RORA (AID 2117)

T2 sequence (Q9UBE0 whole entry): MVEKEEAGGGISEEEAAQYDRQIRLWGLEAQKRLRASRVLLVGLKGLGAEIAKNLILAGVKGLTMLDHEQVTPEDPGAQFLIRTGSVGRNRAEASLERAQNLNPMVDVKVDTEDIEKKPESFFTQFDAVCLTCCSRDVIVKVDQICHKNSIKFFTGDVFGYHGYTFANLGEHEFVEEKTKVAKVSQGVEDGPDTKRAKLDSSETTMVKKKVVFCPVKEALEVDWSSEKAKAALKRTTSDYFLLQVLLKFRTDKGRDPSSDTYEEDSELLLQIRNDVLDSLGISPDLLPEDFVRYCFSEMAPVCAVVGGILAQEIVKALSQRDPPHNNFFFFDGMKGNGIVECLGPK
T2 sequence (Q9UBT2 whole entry): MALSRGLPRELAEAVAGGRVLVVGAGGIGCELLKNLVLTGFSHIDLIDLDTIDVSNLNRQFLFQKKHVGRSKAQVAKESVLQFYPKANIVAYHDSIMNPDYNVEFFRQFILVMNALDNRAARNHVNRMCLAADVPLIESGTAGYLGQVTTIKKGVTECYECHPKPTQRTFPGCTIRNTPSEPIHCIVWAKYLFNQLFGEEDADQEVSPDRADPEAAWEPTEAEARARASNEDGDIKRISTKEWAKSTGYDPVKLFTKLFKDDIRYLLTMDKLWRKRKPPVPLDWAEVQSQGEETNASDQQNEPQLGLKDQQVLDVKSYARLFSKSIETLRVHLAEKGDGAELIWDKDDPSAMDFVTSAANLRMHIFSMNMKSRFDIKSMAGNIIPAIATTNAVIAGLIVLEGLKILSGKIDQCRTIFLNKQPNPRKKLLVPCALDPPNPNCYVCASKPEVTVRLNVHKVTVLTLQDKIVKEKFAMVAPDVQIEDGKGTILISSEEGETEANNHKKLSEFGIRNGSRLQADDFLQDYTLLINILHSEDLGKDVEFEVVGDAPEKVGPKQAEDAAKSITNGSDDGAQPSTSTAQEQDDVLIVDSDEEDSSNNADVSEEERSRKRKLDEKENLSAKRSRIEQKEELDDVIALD
T3 sequence (Q00975 whole entry): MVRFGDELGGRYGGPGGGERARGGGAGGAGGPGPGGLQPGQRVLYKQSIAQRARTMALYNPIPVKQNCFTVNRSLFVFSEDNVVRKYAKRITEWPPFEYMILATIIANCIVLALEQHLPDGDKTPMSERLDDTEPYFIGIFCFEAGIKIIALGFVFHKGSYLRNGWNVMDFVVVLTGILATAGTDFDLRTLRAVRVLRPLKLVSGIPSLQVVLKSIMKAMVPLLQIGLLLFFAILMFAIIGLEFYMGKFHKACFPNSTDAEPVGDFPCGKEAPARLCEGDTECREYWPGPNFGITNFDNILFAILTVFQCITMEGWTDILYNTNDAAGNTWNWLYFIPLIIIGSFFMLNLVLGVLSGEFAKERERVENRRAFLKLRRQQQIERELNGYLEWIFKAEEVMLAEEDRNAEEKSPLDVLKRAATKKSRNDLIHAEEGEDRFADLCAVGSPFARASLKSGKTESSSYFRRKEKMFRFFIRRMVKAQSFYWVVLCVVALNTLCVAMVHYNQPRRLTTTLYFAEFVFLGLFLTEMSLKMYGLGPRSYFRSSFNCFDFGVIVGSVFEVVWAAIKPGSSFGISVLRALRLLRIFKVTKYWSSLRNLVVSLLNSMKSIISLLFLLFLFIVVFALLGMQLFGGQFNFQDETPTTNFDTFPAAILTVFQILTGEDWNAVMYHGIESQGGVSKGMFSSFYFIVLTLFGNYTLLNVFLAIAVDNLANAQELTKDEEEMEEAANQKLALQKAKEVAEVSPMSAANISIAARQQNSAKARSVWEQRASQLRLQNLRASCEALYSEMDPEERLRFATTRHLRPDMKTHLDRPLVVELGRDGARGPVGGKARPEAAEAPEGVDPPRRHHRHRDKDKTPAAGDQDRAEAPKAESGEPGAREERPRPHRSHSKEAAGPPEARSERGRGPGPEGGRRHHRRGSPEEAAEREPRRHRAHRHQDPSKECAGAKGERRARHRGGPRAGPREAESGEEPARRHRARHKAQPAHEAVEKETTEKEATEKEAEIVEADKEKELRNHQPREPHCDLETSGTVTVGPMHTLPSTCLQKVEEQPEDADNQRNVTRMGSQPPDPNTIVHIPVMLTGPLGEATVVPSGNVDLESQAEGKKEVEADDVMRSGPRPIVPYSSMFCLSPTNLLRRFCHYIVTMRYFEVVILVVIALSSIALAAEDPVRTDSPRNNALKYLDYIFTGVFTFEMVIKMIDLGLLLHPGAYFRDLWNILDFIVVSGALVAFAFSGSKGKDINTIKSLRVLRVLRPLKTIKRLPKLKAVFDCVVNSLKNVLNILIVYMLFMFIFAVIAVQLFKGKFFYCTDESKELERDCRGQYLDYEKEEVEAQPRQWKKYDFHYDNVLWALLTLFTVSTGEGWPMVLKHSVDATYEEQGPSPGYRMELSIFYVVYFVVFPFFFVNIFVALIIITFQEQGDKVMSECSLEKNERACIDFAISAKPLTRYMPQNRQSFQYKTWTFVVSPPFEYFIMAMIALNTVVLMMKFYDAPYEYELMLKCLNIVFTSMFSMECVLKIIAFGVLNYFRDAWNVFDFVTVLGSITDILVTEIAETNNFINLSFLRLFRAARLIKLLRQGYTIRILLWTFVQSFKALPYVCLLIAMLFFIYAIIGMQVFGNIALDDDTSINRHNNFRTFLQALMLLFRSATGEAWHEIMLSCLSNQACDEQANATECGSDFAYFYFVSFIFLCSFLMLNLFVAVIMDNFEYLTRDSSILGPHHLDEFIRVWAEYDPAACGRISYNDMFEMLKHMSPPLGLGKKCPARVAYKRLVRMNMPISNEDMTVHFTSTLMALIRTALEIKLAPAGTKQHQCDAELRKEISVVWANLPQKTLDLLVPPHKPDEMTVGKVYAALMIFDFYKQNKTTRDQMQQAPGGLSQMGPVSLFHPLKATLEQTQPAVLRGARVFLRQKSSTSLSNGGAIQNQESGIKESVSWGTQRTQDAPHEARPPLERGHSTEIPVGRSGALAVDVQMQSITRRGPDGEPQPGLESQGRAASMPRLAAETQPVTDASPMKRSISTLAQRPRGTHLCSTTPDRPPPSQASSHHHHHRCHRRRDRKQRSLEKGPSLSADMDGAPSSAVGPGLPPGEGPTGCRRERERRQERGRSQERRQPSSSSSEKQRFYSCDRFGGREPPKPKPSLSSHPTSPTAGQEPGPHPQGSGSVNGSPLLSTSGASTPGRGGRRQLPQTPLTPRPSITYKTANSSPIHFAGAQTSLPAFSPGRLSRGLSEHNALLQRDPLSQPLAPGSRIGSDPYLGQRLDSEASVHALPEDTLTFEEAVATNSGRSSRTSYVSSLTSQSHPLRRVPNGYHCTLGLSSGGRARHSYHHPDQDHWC
T3 sequence (Q02410 whole entry): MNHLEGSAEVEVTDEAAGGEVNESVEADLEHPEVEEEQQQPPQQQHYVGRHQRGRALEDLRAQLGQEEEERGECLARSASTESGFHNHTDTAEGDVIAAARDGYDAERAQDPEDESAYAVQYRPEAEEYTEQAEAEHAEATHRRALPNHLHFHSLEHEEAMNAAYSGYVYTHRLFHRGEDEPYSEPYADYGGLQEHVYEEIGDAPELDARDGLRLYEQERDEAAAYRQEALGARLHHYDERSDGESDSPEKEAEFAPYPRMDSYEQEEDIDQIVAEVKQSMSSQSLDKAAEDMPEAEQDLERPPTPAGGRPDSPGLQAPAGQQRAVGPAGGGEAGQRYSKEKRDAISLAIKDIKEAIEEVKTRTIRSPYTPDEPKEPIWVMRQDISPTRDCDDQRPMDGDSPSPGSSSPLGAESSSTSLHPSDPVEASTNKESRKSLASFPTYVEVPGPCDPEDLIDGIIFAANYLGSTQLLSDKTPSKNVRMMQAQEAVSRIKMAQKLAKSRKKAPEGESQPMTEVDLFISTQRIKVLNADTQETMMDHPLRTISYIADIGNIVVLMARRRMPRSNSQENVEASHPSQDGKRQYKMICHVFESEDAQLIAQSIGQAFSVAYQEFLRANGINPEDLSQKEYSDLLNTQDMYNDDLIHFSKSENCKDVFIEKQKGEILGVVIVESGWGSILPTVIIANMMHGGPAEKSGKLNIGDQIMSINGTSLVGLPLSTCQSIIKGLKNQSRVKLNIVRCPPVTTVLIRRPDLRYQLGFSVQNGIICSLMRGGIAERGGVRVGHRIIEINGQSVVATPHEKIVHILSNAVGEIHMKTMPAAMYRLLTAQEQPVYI
T1 sequence (P51452 whole entry): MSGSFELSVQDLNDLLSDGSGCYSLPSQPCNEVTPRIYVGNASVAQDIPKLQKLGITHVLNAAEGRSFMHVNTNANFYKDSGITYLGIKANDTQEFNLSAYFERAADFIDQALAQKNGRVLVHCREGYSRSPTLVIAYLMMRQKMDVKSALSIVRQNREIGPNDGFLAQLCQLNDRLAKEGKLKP
T5 sequence (P63165 whole entry): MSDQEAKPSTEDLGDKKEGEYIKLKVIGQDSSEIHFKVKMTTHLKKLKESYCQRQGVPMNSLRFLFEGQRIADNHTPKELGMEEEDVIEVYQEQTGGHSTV
Chain of Nuclear receptor ROR-gamma (P51449 whole entry): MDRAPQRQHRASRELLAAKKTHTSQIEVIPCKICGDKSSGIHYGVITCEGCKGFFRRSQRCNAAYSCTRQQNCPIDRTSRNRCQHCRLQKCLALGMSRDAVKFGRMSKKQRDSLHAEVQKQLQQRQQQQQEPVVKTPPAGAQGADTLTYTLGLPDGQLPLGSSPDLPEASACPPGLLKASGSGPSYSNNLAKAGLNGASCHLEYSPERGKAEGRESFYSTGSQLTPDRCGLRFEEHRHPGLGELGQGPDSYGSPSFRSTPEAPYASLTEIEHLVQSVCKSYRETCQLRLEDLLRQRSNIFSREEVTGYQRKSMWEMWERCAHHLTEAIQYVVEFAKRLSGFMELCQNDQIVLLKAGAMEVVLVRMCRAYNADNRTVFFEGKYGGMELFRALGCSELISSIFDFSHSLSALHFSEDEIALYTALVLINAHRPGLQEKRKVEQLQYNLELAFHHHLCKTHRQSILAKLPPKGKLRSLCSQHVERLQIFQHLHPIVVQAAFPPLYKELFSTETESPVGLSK

Cc1cc(C)n(Cc2ccc(C(=O)N/N=C/c3ccc(-c4ccc([N+](=O)[O-])cc4)o3)o2)n1
IC50 [1]: 123 µM (inactive)
IC50 [2]: > 55.7 µM (not active)
IC50 [3]: 5.62 µM (active)
IC50 [4]: 20.2 µM (active)
IC50 [5]: 33 µM (active)
IC50 [6]: 3.55 µM (active)
IC50 [7]: 14 µM (active)
IC50 [8]: 6.64 µM (active)
IC50 [9]: 40 µM (active)
IC50 [10]: > 66.6 µM (inactive)
IC50 [11]: 3.17 µM (active)

O=S(=O)(Nc1ccc(C(O)(C(F)(F)F)C(F)(F)F)cc1)c1cccc2cccnc12
IC50 [12]: > 20 µM (inactive)
IC50 [13]: > 20 µM (inactive)
